This passage reports Kd results from ChEMBL document CHEMBL4177634, “6-Substituted quinolines as RORγt inverse agonists” (Bioorg Med Chem Lett, 2017).

For the test, the target named is T1, Nuclear receptor ROR-gamma (Homo sapiens, UniProt P51449).
T1 sequence (P51449 whole entry): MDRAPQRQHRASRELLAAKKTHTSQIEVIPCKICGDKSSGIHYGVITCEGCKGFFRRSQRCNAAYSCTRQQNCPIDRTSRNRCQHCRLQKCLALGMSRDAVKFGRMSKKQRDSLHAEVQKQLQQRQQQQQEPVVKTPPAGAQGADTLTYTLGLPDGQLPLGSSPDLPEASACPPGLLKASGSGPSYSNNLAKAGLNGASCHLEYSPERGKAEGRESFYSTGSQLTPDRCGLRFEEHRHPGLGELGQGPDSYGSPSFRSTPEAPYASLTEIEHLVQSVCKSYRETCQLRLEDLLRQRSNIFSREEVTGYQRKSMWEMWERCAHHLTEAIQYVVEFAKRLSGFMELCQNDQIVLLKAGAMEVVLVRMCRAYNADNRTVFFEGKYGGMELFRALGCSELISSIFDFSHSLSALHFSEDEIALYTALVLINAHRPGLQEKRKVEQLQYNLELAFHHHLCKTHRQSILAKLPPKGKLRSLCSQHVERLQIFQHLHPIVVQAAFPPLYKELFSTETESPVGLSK
Briefly: Displacement of 1,8-ANS from human N-terminal His-tagged RORgammat LBD ([…]) expressed in Escherichia coli by thermofluor assay. In general terms: DSF heats the sample and reads unfolding from a dye or from intrinsic fluorescence.

Consider `COc1nc2ccc(C(O)(c3ccccc3)C3CCN(C(C)=O)CC3)cc2c(Cl)c1Cc1ccc(-n2cccn2)cc1` (stereo in doubt; 25a), for which binding was put at a Kd of 3.6 nM.

One may read the Kd as the free concentration of one partner at which half of the binding sites on the other are occupied at equilibrium, for simple one-to-one binding. Low readings indicate higher affinity, high ones lower affinity.
